We go through 9 molecules from PMC5597618, “Identification and characterization of the novel reversible and selective cathepsin X inhibitors” (Scientific Reports, 2017).

The target in assay [1] is T1, Cathepsin B (endopeptidase a.) (Homo sapiens, UniProt P07858).
T1 construct: made in house; host or cells: E. coli
The assay is described as follows: Ki against cathepsin B endopeptidase activity (Z-RR-AMC). Conditions: SigmaPlot at 3 different substrate concentrations; pH 6.0. Type of assay: biochemical. As for the experimental part: (§1) Recombinant or native human cathepsins were used: recombinant cathepsin X and cathepsin S were expressed in Pichia pastoris, recombinant cathepsins B and L in E. coli, [43], native cathepsin H was isolated from human liver. Assay buffers for determining activities of cathepsins X and L consisted of 100 mM sodium acetate buffer, pH 5.5, for cathepsins H, S and B (endopeptidase activity) of 100 mM phosphate buffer pH 6.8, 6.5 and 6.0, respectively and for cathepsin B (exopeptidase activity) of 60 mM acetate buffer pH 5.0. Each assay buffer contained 0.01% Triton X-100 to prevent false positive inhibition due to aggregation of compounds[45], 5 mM cysteine, 1.5 mM EDTA and 0.1% PEG 8000. Enzymes were activated at 37 °C for 5 min before the assays.
(§2) Ki was determined by measuring the initial rate of hydrolysis at three different substrate concentrations (Supplementary Table S2) in the presence of seven different compound concentrations (0, 20, 40, 60, 80, 100 and 200 μM). 90 μL of the activated cathepsin was added to a black 96-well plate with 5 μL of the substrate and 5 μL of the compound. Formation of the fluorescent degradation product was monitored continuously at 460 nm ± 10 nm with excitation at 380 nm ± 20 nm (for AMC substrates) and, as noted above for Abz substrates, at 37 °C. All measurements were performed twice and in duplicate. The resulting data were analyzed by non-linear regression using the software SigmaPlot®, Enzyme Kinetics Module™ 1.3 and were fitted to the equation v = v max [S]/([S] (1 + [I]/αK i ) + K m (1 + [I]/K i )) (first group of compounds). For Ki determination against cathepsin X for the compounds from the second group, progress curves in the absence and presence of each putative inhibitor were fitted to the reaction mechanism presented in Fig. 3b. In this case the resulting data as well as reactivation curves were fitted to the equation system presented in Fig. 3c using ENZO application. For calculation of kinetic parameters from reaction progress curves the fluorescence coefficient for conversion of arbitrary fluorescence units to concentration was first determined. The fluorescence coefficient was calculated as the slope from the plot of initial substrate concentration vs. height of the plateau of the progress curve after complete hydrolysis of increasing concentrations of substrate, using linear regression.
(§3) Supplementary Table S2. Substrates used for the various cathepsins and their concentrations […]
(§4) Enzyme Substrate Concentration (µM) Reference/Company cathepsin X Abz-FEK(Dnp)-OH 3.25, 6.5, 13 Puzer et al.3 cathepsin B - endopept. Z-RR-AMC 60, 180, 360 Bachem cathepsin B - exopept. Abz-GIVRAK(Dnp)-OH 1, 3, 6 Bachem cathepsin S Z-VVR-AMC 0.5, 1, 1.5 Biomol cathepsin L Z-FR-AMC 0.5, 1, 4 Bachem cathepsin H Z-R-AMC 20, 80, 160 Biomol […]

Assay [2] addresses T2, Cathepsin B (exopeptidase a.) (Homo sapiens, UniProt P07858).
T2 construct: made in house; host or cells: E. coli
The assay is described as follows: Ki against cathepsin B exopeptidase activity (Abz-GIVRAK(Dnp)-OH). The settings on record: SigmaPlot at 3 different substrate concentrations; pH 5.0. Type of assay: biochemical. As to the method:
as §1, §2, §3, §4

A further assay has as its target T3, Cathepsin L (Homo sapiens, UniProt P07711).
T3 construct: made in house; host or cells: E. coli
Put plainly: Ki against cathepsin L (Z-FR-AMC). Conditions: SigmaPlot at 3 different substrate concentrations; pH 5.5. Type of assay: biochemical. As to the method: as §1, §2, §3, §4

Another assay addresses T4, Cathepsin H (Homo sapiens, UniProt P09668).
T4 construct: native cathepsin H was isolated from human liver; from tissue; host or cells: human liver
The assay is described as follows: Ki against cathepsin H (Z-R-AMC). The format is biochemical. The settings on record: SigmaPlot at 3 different substrate concentrations; pH 6.8. As for the experimental part: as §1, §2, §3, §4

In a further assay the target is T5, Cathepsin S (Homo sapiens, UniProt P25774).
T5 construct: made in house; host or cells: Pichia pastoris
The assay is described as follows: Ki against cathepsin S (Z-VVR-AMC). The format is biochemical. Conditions: SigmaPlot at 3 different substrate concentrations; pH 6.5. As to the method: as §1, §2, §3, §4

The subject of a further assay is PC-3 cells. The assay is described as follows: Real time cell migration assay (xCELLigence, CIM plates). Type of assay: cell-based, human. The settings on record: Homo sapiens, PC-3; 10 μM; compound in upper and bottom compartments; vs DMSO. As for the experimental part: (§5) Human prostate cancer cell line PC-3 cells (obtained from ATCC, Manassas, USA; ATCC Number: CRL-1435) were cultured in F-12 (Gibco) and Advanced DMEM (Gibco) (1:1) with 10% FBS, 1% penicillin/streptomycin and 1% L-glutamine. Rat pheochromocytoma PC-12 cells (obtained from ATCC, Manassas, USA; ATCC Number: CRL-1721) were cultured in Advanced DMEM (Gibco) with 5% FBS, 10% heat-inactivated horse serum, 1% penicillin/streptomycin and 1% L-glutamine.
Cell migration assay was performed on a Real-Time Cell Analyzer Dual Plate (RTCA DP) Instrument, xCELLigence System (ACEA Biosciences). CIM plates were coated with fibronectin (10 μg/ml, BD Biosciences) on the down and upper side of the microporous PET membrane for 30 min at room temperature and 2 hours at 37 °C, respectively. Excess fibronectin was removed and wells washed with phosphate buffer saline (PBS). Compounds (10 μM) were added to the complete media (lower chambers) or serum-free media (upper chambers). 0.1% DMSO was used as a control. 2 × 10^4 cells were plated per well. In additional experimental setting, inhibitors were added only to the upper chambers 3 hours after experiment started in order to measure their impact only on the cell migration and not the adhesion. Impedance data, reported as cell index, were measured continuously every 15 min for 72 hours and then analyzed with the RTCA Software (ACEA Biosciences, Inc.). Results are normalized to cells treated with DMSO.

A further assay concerns PC-12 cells. Put plainly: Neurite outgrowth assay. Type of assay: cell-based, rat. Conditions: 10 µM; 48 h; vs DMSO control. As to the method: as §5
PC-12 cells were seeded in 96-well plates (4 × 10^4/well) coated with poly-L-lysine. Next day, the cells were treated with compounds (10 µM) in serum-free medium, and neurite outgrowth was measured after 48 h using Neurite Outgrowth Staining Kit (Molecular Probes), in accordance with the manufacturer’s instructions. Fluorescence intensity was measured at 525 nm with excitation at 483 nm for cell viability indicator and at 567 nm with excitation at 554 nm for cell membrane indicator. Results, expressing increased neurite outgrowth, were normalized to cells treated with DMSO.

Assay [3] has as its target T6, cathepsin X (Homo sapiens, UniProt Q9UBR2). Put plainly: Determination of Ki values and inhibition mechanism against cathepsin X (Abz-FEK(Dnp)-OH substrate). The format is biochemical. Also on record: made in house; host or cells: Pichia pastoris. The settings on record: for Inhibition mechanism: ENZO. As for the experimental part:
as §1, §2, §3, §4

Assay [4] has as its target T6, cathepsin X. The assay is described as follows: Determination of relative inhibition of cathepsin X. Type of assay: biochemical. Also on record: made in house; host or cells: Pichia pastoris. As for the experimental part: as §1
Abz-FEK(Dnp)-OH was used as cathepsin X specific substrate in activity assays. 90 μL of activated cathepsin X (20 nM) was added to a black 96-well plate with 5 μL of substrate (3.25 μM final concentration) and 5 μL of the compound (50 μM final concentration). The reaction was monitored continuously at 420 nm ± 10 nm with excitation at 320 nm ± 20 nm and at 37 °C. Relative inhibition (%) was calculated with the equation (1 − v i/v 0) × 100, where v i is reaction velocity in the presence of the compound and v 0 is reaction velocity without the compound.

The target of assay [5] is cathepsin X. Conditions: cited from earlier work.
In assay [6] the target is T6, cathepsin X. The assay is described as follows: Reversibility of binding: washout experiment and dilution method. Type of assay: biochemical. More on the design: made in house; host or cells: Pichia pastoris. As to the method:
The reversibility of binding was determined in two separate experiments. In the washout experiment[47] 20 nM cathepsin X was mixed with a saturating level of the inhibitor (100 μM) and incubated for 1 hour at room temperature. One half of the reaction mixture was assayed for activity and the other half was diluted approximately 200000-fold with assay buffer prior to the activity assay. Step-wise dilution and concentration was performed on a Centricon (Millipore) with 10 kDa cut-off. In the dilution method[19] cathepsin X (5 μM) was incubated with inhibitor (100 μM). Half the reaction mixture was diluted 100-fold with the assay buffer containing substrate and immediately assayed for activity, the other half was incubated for 2 hours, diluted 100-fold and then assayed for activity.

The mark [7] stands for this setting: first group, SigmaPlot non-linear regression at 3 different substrate concentrations.
Setting [8] is: screening at 50 μM compound, read-out: relative inhibition of cathepsin X.
Where [9] appears, read: second group, progress curve analysis with ENZO.
Where [10] appears, read: second group, 50 μM compound, 1 h preincubation, read-out: % inhibition (1 h preincubation).

Where two headings read alike, the source gives them in different places.

T6 sequence (Q9UBR2 62-303): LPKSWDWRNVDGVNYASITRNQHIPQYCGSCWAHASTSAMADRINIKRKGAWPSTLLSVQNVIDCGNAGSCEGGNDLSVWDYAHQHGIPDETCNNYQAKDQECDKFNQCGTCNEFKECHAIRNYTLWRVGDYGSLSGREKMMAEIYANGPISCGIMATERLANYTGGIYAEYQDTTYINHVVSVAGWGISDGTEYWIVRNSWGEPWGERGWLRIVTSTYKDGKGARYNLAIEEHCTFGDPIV
T5 sequence (P25774 115-331): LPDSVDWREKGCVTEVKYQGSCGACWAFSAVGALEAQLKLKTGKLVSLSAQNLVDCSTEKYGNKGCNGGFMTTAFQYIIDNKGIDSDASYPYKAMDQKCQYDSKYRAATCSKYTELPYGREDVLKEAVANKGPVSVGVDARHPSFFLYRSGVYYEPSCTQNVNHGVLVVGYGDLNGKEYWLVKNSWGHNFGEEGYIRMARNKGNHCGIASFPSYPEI
T4 sequence (P09668 116-335 limits assumed, other chains not shown): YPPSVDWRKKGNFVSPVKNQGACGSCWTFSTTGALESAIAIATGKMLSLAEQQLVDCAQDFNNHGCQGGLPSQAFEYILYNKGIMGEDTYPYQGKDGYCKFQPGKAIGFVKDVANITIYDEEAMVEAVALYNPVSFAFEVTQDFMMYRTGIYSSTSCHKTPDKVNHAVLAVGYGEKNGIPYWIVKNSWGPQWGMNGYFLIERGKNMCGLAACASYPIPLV
T3 sequence (P07711 114-333): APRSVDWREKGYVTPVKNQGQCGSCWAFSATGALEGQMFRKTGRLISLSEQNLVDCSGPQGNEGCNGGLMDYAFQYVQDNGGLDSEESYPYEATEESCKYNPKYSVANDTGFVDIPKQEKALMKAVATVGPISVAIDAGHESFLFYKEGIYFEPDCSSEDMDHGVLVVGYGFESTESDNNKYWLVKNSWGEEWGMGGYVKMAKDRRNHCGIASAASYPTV

The term Ki denotes a measure of affinity in units of concentration, obtained from inhibition or displacement. A lower Ki goes with higher affinity. Broadly, the inhibition is the drop in the measured response relative to a control, in per cent. As for `Nc1nc(SCC(=O)c2ccc3c(c2)OCCO3)n[nH]1` [Compound 2, 2-((5-Amino-1H-1,2,4-triazol-3-yl)thio)-1-(2,3-dihydrobenzo[b][1,4]dioxin-6-yl)ethanone], the Ki in assay [1] was found to be 392 ± 121 µM; in assay [2] it was 210 ± 11 µM; at Cathepsin L, 902 ± 89.7 µM; on Cathepsin H, 483.1 ± 0.6 µM; on Cathepsin S, 463 ± 42.9 µM; on cathepsin X [3] (setting [7]), 29.2 ± 2.44 µM. For the same molecule, the inhibition at 10 µM in the assay on PC-3 cells was in the range of 15 to 30%. Besides, in the assay with PC-12 cells, the “increase of neurite outgrowth” value is “statistically significant increase”. Also, the inhibition at 50 µM on cathepsin X [4] (setting [8]) lay within 60 to 75%.

`N#Cc1c(NC(=O)c2cc(OCCN)ccc2Cl)sc2c1CCCC2` [Compound 3, 5-(2-Aminoethoxy)-2-chloro-N-(3-cyano-4,5,6,7-tetrahydrobenzo[b]thiophen-2-yl)benzamide] came in with a Ki on cathepsin X [3] (setting [7]) of 260 ± 31.9 µM. Further, the inhibition at 50 µM on cathepsin X [4] (setting [8]) was 60 to 75%.

Consider `N#Cc1c(NC(=O)c2cc(OCCCN)ccc2Cl)sc2c1CCCC2` [Compound 4, 5-(3-Aminopropoxy)-2-chloro-N-(3-cyano-4,5,6,7-tetrahydrobenzo[b]thiophen-2-yl)benzamide], for which the affinity on cathepsin X [3] (setting [7]) corresponds to a Ki of 230 ± 2.9 µM. Besides, at cathepsin X [4] (setting [8]), the inhibition at 50 µM fell in the range of 60 to 75%.

`O=C(NC1CC2C(=O)NCC(=O)N2C1)c1ccc2cccnc2n1` (stereo not drawn) [Compound 5] displayed a Ki on cathepsin X [3] (setting [7]) of 136 µM. In addition, at cathepsin X [4] (setting [8]), the inhibition at 50 µM is 60 to 75%.

`O=C(CSc1nnc(N2CCCC2)n1C1CC1)c1ccc2c(c1)OCCO2` [Compound 14, 2-((4-Cyclopropyl-5-(pyrrolidin-1-yl)-4H-1,2,4-triazol-3-yl)thio)-1-(2,3-dihydrobenzo[b][1,4]dioxin-6-yl)ethanone]: at cathepsin X [3] (second group), the Inhibition mechanism entry was “competitive”. On cathepsin X [3] (setting [9]), the Ki turned out to be 5.41 ± 0.19 µM. In addition, the inhibition at 50 µM on cathepsin X [4] (setting [8]) was more than 70%; at cathepsin X [4] (setting [10]) it was 74%.

Take `O=C(CSc1nc(C2CC2)n[nH]1)c1ccc2c(c1)OCCO2` [Compound 17, 2-((3-Cyclopropyl-1H-1,2,4-triazol-5-yl)thio)-1-(2,3-dihydrobenzo[b][1,4]dioxin-6-yl)ethan-1-one]: the Inhibition mechanism entry on cathepsin X [3] (second group) was “competitive”. Besides, the Ki at cathepsin X [3] (setting [9]) is 7.35 ± 0.28 µM. Also, the inhibition at 50 µM on cathepsin X [4] (setting [8]) is more than 70%; at cathepsin X [4] (setting [10]) it was 72%.

For `Cc1ccccc1-n1cnnc1SCC(=O)c1ccc2c(c1)OCCO2` [Compound 20, 1-(2,3-Dihydrobenzo[b][1,4]dioxin-6-yl)-2-((4-(o-tolyl)-4H-1,2,4-triazol-3-yl)thio)ethan-1-one], the Ki was 301 ± 214 µM in assay [1], 83.1 ± 7 µM in assay [2], more than 500 µM on Cathepsin H and 8.78 ± 0.39 µM on cathepsin X [3] (setting [9]). In addition, the “Ki Cathepsin L” value on Cathepsin L is “n.i”. The “Ki Cathepsin S” value at Cathepsin S is given as “n.i”. This molecule also showed an inhibition at 10 µM in the assay with PC-3 cells of 15 to 30%. In addition, the “increase of neurite outgrowth” value in the assay on PC-12 cells was “statistically significant increase”. Further, the Inhibition mechanism result at cathepsin X [3] (second group) was “competitive”. Also, the inhibition at 50 µM at cathepsin X [4] (setting [8]) was more than 70%; on cathepsin X [4] (setting [10]) it was 79%.

On to `CC(C)C[C@H](NC(=O)[C@H]1O[C@@H]1C(=O)O)C(=O)NCCCCN=C(N)N` [Compound E-64], for which the kinact/Ki at cathepsin X [5] is on record as 775 M^–1s^–1. For the same molecule, the “cathepsin X activity after washout” value at cathepsin X [6] (1-hour pre-incubation, 100 μM inhibitor, 200000-fold dilution, 10 kDa cut-off) is reported as “retained cathepsin X inhibition”. In addition, the “enzyme activity recovered after 100-fold rapid dilution” value on cathepsin X [6] (dilution method, cathepsin X 5 μM, inhibitor 100 μM) was “remained inhibited”.

As to `CCCNC(=O)C1OC1C(=O)NC(C(=O)O)C(C)CC` (stereo not drawn) [nPrNH-(2 S,3 S)tEps-Ile-OH], at cathepsin X [5], the kinact/Ki was 225 M^–1s^–1 and the “preference for cathepsin X over cathepsins B or L” value was 10 fold.
